In patent publication US10077261B2, “Imidazolin-5-one derivative useful as FASN inhibitors for the treatment of cancer” (Janssen Pharmaceutica NV, priority 2012, dated 2018):

Molecular target: T1, hFASN enzyme (full length) (Homo sapiens, UniProt P49327)
T1 construct: 10 μL hFASN enzyme (full length, 300 ng, purified in house); made in house
Test: Fatty Acid Synthase (FASN) inhibition scintillation proximity assay
Format: biochemical
Conditions: for inhibition at 10 µM: read-out: Human FASN % inhibition @ 10 μM, 10 μM test compound; for IC50: read-out: Human FASN pIC50 (converted)
Experimental: In this assay, inhibition of FASN activity is measured using ^3H-acetyl-CoA and malonyl-CoA as substrates. ^3H-Acetyl CoA is converted to ^3H-palmitate through a series of reactions by the FASN protein, which contains 7 functional domains and carries out 7 enzymatic reactions to ultimately produce ^3H-palmitate. The assay principle is based upon the fact that ^3H-acetyl-CoA is hydrophilic and the end product, ^3H-palmitate is hydrophobic.
10 μL assay buffer (100 mM KH2PO4 pH 7.5, 1 mM DTT) (20 μL in blanks) was added to a 384-well white optiplate plate (Perkin Elmer). 0.9 μL test compound (at concentrations of 30 μM, 10 μM, 3 μM, 1 μM, 0.30 μM, 0.10 μM, 0.03 μM and 0.01 μM)/DMSO and 10 μL hFASN enzyme (full length, 300 ng, purified in house) or 10 μL assay buffer was added to the wells. […] The reaction was stopped by adding 20 μL Streptavidin coupled imaging beads (25 mg/ml). After incubation for 30 minutes at room temperature in the dark, the 384 well plate was centrifuged at 1500 rpm for 3 minutes and was measured after at least 24 hrs by the LEADseeker™, measuring emission using a 610±20 nm pass filter.
where mLC and mHC were the means of the low control wells and high control wells on the plate, after manual exclusion of outliers. A plot of Controlmin versus test compound concentration was fitted to a 4-parameter logistic curve using a non-linear least squares regression method.

T1 sequence (P49327 whole entry): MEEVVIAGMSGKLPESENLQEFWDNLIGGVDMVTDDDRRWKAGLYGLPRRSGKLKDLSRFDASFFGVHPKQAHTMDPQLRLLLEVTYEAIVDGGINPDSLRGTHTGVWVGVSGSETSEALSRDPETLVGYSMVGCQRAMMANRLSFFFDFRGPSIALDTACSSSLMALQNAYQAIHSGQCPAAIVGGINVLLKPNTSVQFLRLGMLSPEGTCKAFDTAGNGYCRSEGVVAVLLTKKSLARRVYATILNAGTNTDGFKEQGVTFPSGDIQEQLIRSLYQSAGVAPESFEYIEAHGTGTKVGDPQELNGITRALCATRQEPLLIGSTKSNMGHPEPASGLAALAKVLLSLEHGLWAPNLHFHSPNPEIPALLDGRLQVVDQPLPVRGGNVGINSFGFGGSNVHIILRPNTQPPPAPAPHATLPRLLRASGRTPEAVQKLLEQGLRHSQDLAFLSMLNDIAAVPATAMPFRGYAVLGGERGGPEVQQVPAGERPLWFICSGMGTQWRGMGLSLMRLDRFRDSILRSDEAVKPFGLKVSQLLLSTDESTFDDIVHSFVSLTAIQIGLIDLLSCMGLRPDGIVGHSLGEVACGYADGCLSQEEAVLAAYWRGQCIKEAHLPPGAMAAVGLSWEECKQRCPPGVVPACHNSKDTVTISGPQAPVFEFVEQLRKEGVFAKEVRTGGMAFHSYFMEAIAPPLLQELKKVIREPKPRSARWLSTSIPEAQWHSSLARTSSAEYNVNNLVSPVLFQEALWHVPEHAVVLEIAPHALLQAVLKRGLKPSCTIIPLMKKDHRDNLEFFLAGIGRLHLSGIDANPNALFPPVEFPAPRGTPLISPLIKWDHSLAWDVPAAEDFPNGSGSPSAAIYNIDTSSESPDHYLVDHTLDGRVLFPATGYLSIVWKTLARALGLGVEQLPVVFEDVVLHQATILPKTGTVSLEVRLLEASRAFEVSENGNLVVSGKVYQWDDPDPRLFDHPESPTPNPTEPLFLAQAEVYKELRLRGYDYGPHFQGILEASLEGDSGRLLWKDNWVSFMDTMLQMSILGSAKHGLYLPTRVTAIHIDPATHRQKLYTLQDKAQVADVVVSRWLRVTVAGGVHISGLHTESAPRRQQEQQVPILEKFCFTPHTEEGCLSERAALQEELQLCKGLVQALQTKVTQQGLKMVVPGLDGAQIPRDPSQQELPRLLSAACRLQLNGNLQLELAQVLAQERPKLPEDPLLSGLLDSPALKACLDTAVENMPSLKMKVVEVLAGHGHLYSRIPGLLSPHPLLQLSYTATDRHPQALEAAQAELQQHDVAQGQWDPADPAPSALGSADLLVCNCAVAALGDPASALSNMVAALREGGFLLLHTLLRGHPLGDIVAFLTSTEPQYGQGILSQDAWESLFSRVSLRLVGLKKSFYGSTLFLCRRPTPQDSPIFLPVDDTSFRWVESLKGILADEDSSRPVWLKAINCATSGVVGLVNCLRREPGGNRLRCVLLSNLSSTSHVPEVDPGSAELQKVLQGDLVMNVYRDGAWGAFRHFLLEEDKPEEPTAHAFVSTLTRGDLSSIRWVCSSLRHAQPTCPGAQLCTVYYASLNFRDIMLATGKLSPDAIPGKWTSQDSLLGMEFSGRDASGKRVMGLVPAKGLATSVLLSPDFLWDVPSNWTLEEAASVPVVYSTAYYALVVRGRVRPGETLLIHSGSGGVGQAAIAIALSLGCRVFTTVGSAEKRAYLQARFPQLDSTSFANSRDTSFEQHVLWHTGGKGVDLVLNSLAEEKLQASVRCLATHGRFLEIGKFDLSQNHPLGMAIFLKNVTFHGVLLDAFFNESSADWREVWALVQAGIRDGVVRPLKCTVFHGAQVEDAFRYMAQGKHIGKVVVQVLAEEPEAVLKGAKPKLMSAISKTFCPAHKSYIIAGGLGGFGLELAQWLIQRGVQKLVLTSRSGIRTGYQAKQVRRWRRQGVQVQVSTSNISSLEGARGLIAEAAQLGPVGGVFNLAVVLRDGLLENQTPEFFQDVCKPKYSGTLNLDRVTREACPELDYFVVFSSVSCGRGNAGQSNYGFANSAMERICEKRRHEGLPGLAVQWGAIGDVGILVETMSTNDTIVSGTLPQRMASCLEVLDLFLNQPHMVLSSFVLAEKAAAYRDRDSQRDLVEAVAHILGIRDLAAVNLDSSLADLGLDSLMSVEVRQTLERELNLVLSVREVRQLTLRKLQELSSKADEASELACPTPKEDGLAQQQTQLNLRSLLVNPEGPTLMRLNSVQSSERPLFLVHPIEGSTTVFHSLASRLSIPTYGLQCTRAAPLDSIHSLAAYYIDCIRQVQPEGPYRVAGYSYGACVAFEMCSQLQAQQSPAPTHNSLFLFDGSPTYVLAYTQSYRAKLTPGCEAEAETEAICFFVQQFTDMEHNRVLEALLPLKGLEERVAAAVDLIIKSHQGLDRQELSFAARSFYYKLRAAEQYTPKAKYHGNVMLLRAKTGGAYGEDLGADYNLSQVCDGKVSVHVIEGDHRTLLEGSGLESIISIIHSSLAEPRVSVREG

SMILES | inhibition at 10 µM | IC50
O=C(C1CC1)N1CC[C@@H](CN2C(=O)C3(CCCC3)N=C2c2ccc(-c3ccncc3)cc2)C1 [compound 3, 3-{[(3R)-1-(Cyclopropylcarbonyl)pyrrolidin-3-yl]methyl}-2-(4-pyridin-4-ylphenyl)-1,3-diazaspiro[4.4]non-1-en-4-one] | 44.3% | > 10 µM
O=C(C1CC1)N1CC[C@@H](CN2C(=O)C3(CCCC3)N=C2c2ccc(-c3cccnc3)cc2)C1 [compound 5, 3-{[(3R)-1-(Cyclopropylcarbonyl)pyrrolidin-3-yl]methyl}-2-(4-pyridin-3-ylphenyl)-1,3-diazaspiro[4.4]non-1-en-4-one] | 74.6% | 2.14 µM
O=C(C1CC1)N1CCC(CN2C(=O)C3(CC3)N=C2c2ccc(-c3cccnc3)cc2)CC1 [compound 6, 6-{[1-(Cyclopropylcarbonyl)piperidin-4-yl]methyl}-5-(4-pyridin-3-ylphenyl)-4,6-diazaspiro[2.4]hept-4-en-7-one] | 61.6% | 7.24 µM
N#Cc1ccc(-c2ccc(C3=NC4(CC4)C(=O)N3CC3CCN(C(=O)C4CC4)CC3)cc2)cc1 [compound 7, 4′-(6-{[1-(Cyclopropylcarbonyl)piperidin-4-yl]methyl}-7-oxo-4,6-diazaspiro[2.4]hept-4-en-5-yl)biphenyl-4-carbonitrile] | 33.7% | 
Cn1nccc1-c1ccc(C2=NC3(CC3)C(=O)N2CC2CCN(C(=O)C3CC3)CC2)cc1 [compound 8, 6-{[1-(Cyclopropylcarbonyl)piperidin-4-yl]methyl}-5-[4-(1-methyl-1H-pyrazol-5-yl)phenyl]-4,6-diazaspiro[2.4]hept-4-en-7-one] | 5.1% | > 10 µM
Cn1cc(-c2ccc(C3=NC4(CC4)C(=O)N3CC3CCN(C(=O)C4CC4)CC3)cc2)cn1 [compound 9, 6-{[1-(Cyclopropylcarbonyl)piperidin-4-yl]methyl}-5-[4-(1-methyl-1H-pyrazol-4-yl)phenyl]-4,6-diazaspiro[2.4]hept-4-en-7-one] | 11.4% | > 10 µM
Cn1cc(-c2ccc(C3=NC4(CCCC4)C(=O)N3C[C@@H]3CCN(C(=O)C4CC4)C3)cc2)cn1 [compound 13, 3-{[(3R)-1-(Cyclopropylcarbonyl)pyrrolidin-3-yl]methyl}-2-[4-(1-methyl-1H-pyrazol-4-yl)phenyl]-1,3-diazaspiro[4.4]non-1-en-4-one] | 29.7% | > 10 µM
COC(=O)N1CCC2(CC1)N=C(c1ccc(-c3ccc4occc4c3)cc1)N(CC1CN(C(=O)C3CC3)C1)C2=O [compound 16, Methyl 2-[4-(1-benzofuran-5-yl)phenyl]-3-{[1-(cyclopropylcarbonyl)azetidin-3-yl]methyl}-4-oxo-1,3,8-triazaspiro[4.5]dec-1-ene-8-carboxylate] | 72.5% | 1.38 µM
O=C(C1CC1)N1CC[C@@H](CN2C(=O)C3(CCCC3)N=C2c2ccc(-c3ccccn3)cc2)C1 [compound 18, 3-{[(3R)-1-(Cyclopropylcarbonyl)pyrrolidin-3-yl]methyl}-2-(4-pyridin-2-ylphenyl)-1,3-diazaspiro[4.4]non-1-en-4-one] | 42.7% | > 10 µM
O=C(C1CC1)N1CC[C@@H](CN2C(=O)C3(CCCC3)N=C2c2ccc(-c3ccnc4ccccc34)cc2)C1 [compound 22, 3-{[(3R)-1-(Cyclopropylcarbonyl)pyrrolidin-0 3-yl]methyl}-2-(4-quyinolin-4-ylphenyl)-1,3-diazaspiro[4.4]non-1-en-4-one] | 85% | 1.07 µM
Cn1ncc2ccc(-c3ccc(C4=NC5(CC5)C(=O)N4CC4CCN(C(=O)C5CC5)CC4)cc3)cc21 [compound 24, 6-{[1-(Cyclopropylcarbonyl)piperidin-4-yl]methyl}-5-[4-(1-methyl-1H-indazol-6-yl)phenyl]-4,6-diazaspiro[2.4]hept-4-en-7-one] | 76.4% | 1.86 µM
O=C(C1CC1)N1CCC(CN2C(=O)C3(CC3)N=C2c2ccc(-c3ccc4ccncc4c3)cc2)CC1 [compound 25, 6-{[1-(Cyclopropylcarbonyl)piperidin-4-yl]methyl}-5-(4-isoquinolin-7-ylphenyl)-4,6-diazaspiro[2.4]hept-4-en-7-one] | 64.4% | ~4.9 µM
O=C(C1CC1)N1CCC(CN2C(=O)C3(CC3)N=C2c2ccc(-c3ccncc3)cc2)CC1 [compound 32, 6-{[1-(Cyclopropylcarbonyl)piperidin-4-yl]methyl}-5-(4-pyridin-4-ylphenyl)-4,6-diazaspiro[2.4]hept-4-en-7-one] | 6.8% | > 10 µM
O=C(C1CC1)N1CCC(CN2C(=O)C3(CC3)N=C2c2ccc(-c3ccc4ocnc4c3)cc2)CC1 [compound 37, 5-[4-(1,3-Benzoxazol-5-yl)phenyl]-6-{[1-(cyclopropylcarbonyl)piperidin-4-yl]methyl}-4,6-diazaspiro[2.4]hept-4-en-7-one] | 28.6% | > 10 µM
Cn1cc(-c2ccc(C3=NC4(CC4)C(=O)N3CC3CN(C(=O)C4CC4)C3)cc2)cn1 [compound 42, 6-{[1-(Cyclopropylcarbonyl)azetidin-3-yl]methyl}-5-[4-(1-methyl-1H-pyrazol-4-yl)phenyl]-4,6-diazaspiro[2.4]hept-4-en-7-one] | 23.5% | > 10 µM
Cn1nccc1-c1ccc(C2=NC3(CC3)C(=O)N2CC2CN(C(=O)C3CC3)C2)cc1 [compound 43, 6-{[1-(Cyclopropylcarbonyl)azetidin-3-yl]methyl}-5-[4-(1-methyl-1H-pyrazol-5-yl)phenyl]-4,6-diazaspiro[2.4]hept-4-en-7-one] | 45.4% | ~10 µM
CN1CCN(c2ccc(-c3ccc(C4=NC5(CCCC5)C(=O)N4C[C@@H]4CCN(C(=O)C5CC5)C4)cc3)cn2)CC1 [compound 44, 3-{[(3R)-1-(Cyclopropylcarbonyl)pyrrolidin-3-yl]methyl}-2-{4-[6-(4-methylpiperazin-1-yl)pyridin-3-yl]phenyl}-1,3-diazaspiro[4.4]non-1-en-4-one] | -0.97% | > 10 µM
O=C(C1CC1)N1CC(CN2C(=O)C3(CC3)N=C2c2ccc(-c3ccc(O)cc3)cc2)C1 [compound 50, 6-{[1-(Cyclopropylcarbonyl)azetidin-3-yl]methyl}-5-(4′-hydroxybiphenyl-4-yl)-4,6-diazaspiro[2.4]hept-4-en-7-one] | 64.8% | 3.47 µM
Nc1cc(-c2ccc(C3=NC4(CC4)C(=O)N3CC3CN(C(=O)C4CC4)C3)cc2)ccc1O [compound 53, 5-(3′-Amino-4′-hydroxybiphenyl-4-yl)-6-{[1-(cyclopropylcarbonyl)azetidin-3-yl]methyl}-4,6-diazaspiro[2.4]hept-4-en-7-one] | 78.6% | 1.95 µM
O=CNc1cc(-c2ccc(C3=NC4(CC4)C(=O)N3CC3CN(C(=O)C4CC4)C3)cc2)ccc1O [compound 54, N-[4′-(6-{[-(Cyclopropylcarbonyl)azetidin-3-yl]methyl}-7-oxo-4,6-diazaspiro[2.4]hept-4-en-5-yl)-4-hydroxybiphenyl-3-yl]formamide] | 64.7% | 4.68 µM
O=C(C1CC1)N1CCC(CN2C(=O)C3(CC3)N=C2c2ccc(-c3ccc(O)cc3)cc2)CC1 [compound 55, 6-{[1-(Cyclopropylcarbonyl)piperidin-4-yl]methyl}-5-(4′-hydroxybiphenyl-4-yl)-4,6-diazaspiro[2.4]hept-4-en-7-one] | 32.7% | > 10 µM
O=C(C1CC1)N1CCC(CN2C(=O)C3(CC3)N=C2c2ccc(-c3ccc(-c4ccncc4)cc3)cc2)CC1 [compound 61, 6-{[1-(Cyclopropylcarbonyl)piperidin-4-yl]methyl}-5-(4′-pyridin-4-ylbiphenyl-4-yl)-4,6-diazaspiro[2.4]hept-4-en-7-one] | 63.2% | 3.98 µM
Cn1nccc1-c1ccc(-c2ccc(C3=NC4(CC4)C(=O)N3CC3CCN(C(=O)C4CC4)CC3)cc2)cc1 [compound 62, 6-{[1-(Cyclopropylcarbonyl)piperidin-4-yl]methyl}-5-[4′-(1-methyl-1H-pyrazol-5-yl)biphenyl-4-yl]-4,6-diazaspiro[2.4]hept-4-en-7-one] | 29.3% | > 10 µM
N#Cc1cccc(-c2ccc(C3=NC4(CCCC4)C(=O)N3C[C@@H]3CCN(C(=O)C4CC4)C3)cc2)c1 [compound 83, 4′-(3-{[(3R)-1-(Cyclopropylcarbonyl)pyrrolidin-3-yl]methyl}-4-oxo-1,3-diazaspiro[4.4]non-1-en-2-yl)biphenyl-3-carbonitrile] | 65.6% | 4.79 µM
CS(=O)(=O)Nc1cccc(-c2ccc(C3=NC4(CCCC4)C(=O)N3C[C@@H]3CCN(C(=O)C4CC4)C3)cc2)c1 [compound 84, N-[4′-(3-{(3R)-1-(Cyclopropylcarbonyl)pyrrolidin-3-yl]methyl}-4-oxo-1,3-diazaspiro[4.4non-1-en-2-yl)biphenyl-3-yl]methanesulfonamide] | 89.2% | 1 µM
